# Measured values reported in BindingDB's records for doi:10.1002/cbic.201300187 (The Johns Hopkins University, 2013).
# Target: T1, 1-deoxy-D-xylulose-5-phosphate synthase (Escherichia coli (strain K12), UniProt P77488)
# T1 sequence (P77488 whole entry): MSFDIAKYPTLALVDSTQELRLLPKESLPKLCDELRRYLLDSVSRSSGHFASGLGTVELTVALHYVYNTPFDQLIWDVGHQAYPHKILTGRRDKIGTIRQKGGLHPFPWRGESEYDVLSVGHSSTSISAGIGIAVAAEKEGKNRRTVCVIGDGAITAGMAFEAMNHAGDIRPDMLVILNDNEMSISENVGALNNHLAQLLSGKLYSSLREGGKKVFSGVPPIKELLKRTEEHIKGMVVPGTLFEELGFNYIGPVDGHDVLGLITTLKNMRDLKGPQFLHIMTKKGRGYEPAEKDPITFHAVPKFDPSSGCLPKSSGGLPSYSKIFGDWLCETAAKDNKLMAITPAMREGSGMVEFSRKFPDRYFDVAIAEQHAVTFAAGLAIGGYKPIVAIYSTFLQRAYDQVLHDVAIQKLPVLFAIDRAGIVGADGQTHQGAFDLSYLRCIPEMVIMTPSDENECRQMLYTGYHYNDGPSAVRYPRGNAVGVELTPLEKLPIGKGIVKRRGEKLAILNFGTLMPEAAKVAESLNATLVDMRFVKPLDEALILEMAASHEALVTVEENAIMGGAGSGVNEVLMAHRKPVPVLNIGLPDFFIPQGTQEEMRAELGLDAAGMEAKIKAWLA
# Experiment: DXP Synthase Inhibition Assay
# Settings: pH 8; 37 °C
# Description: Reaction mixtures containing HEPES (100mM, pH 8.0, 2mM MgCl2, 5mM NaCl), ThDP (1mM), BSA (1mg/mL), DMSO (10%, v/v), ᴅ-GAP (30µM), pyruvate (80µM), and various concentrations of nitroso inhibitor were preincubated at 37°C for 5 min. Enzyme reactions were initiated by addition of DXP synthase (0.1µM). Aliquots (150µL) of the enzymatic mixture were removed between 0.5 and 3 min and quenched in ice-cold methanol (150µL).
row,SMILES,IC50 [µM]
1,"Cc1nn(C(C)C)c(C)c1N=O [1‐isopropyl‐3,5‐dimethyl‐4‐nitrosopyrazole (Substrate 9)]",> 2000
2,COc1ccc2ccc(O)c(N=O)c2c1 [7‐methoxy‐1‐nitrosonaphthalen‐2‐ol (Substrate 8)],> 2000
3,CN(C)c1ccc(N=O)cc1 [NDMA (Substrate 4)],844
4,O=Nc1ccccc1 [NOB],208
